Experimental data: patent US20160009752A1, “[…]-OXIMINO-AMINOALKYLETHERS AND PROCESS FOR PREPARATION THEREOF, USEFUL AS ANTIDIABETIC AND […] AGENTS” (COUNCIL OF SCIENTIFIC & INDUSTRIAL RESEARCH, priority 2013, published 2016)
Marks after values point to notes of the source that are not given here.

Key:
sucrose loaded rat = assay: Sucrose loaded rat model (SLM), oral tolerance test; format: in vivo; set-up: % Antihyperglycemic activity SLM: concentration or dose not given beside the values; conditions: for % Antihyperglycemic activity SLM: Table 2, sucrose loaded rat
Source text: On the day of experiment blood glucose of all the overnight fasted animals was checked by Glucostrips (Roche) using Glucometer (ACCU-CHEK II; Roche Diagnostics, USA). […] Animals were divided into groups consisting of five animals in each. […] The test compounds and standard drug was always prepared in the vehicle 1% gum acacia. […] Food (not water) was removed from the cages during the experimental period. […] Comparing the AUC of test sample or drug treated groups compared to control group determined the percent improvement in OGTT by test sample and standard drugs and termed as antihyperglycaemic activity. Statistical analysis between the groups was done by employing Students t test

[1] = test system: sucrose challenged low dosed STZ-induced diabetic rats; assay: Sucrose challenged low dosed streptozotocin-induced diabetic rats (STZ-S); format: in vivo, rat; conditions: for % Antihyperglycemic activity STZ-S 0-5 hr / % Antihyperglycemic activity STZ-S 0-24 hr: Table 2
Protocol: Fasting blood glucose level of each animal was measured after 48 hours post STZ injection by Glucostrips (Roche) using Glucometer (ACCU-CHEK II; Roche Diagnostics, USA) and animals showing blood glucose level above 280 mg/dl were considered as diabetic. The diabetic rats with fasting blood glucose values varying between […] were included in this study. Animals were divided into groups consisting of five animals in each. Group one was considered as a control group, where as the other groups were termed as experimental groups. […] The test samples and standard drug (Metformin) was always prepared in the vehicle 1% gum acacia. […] Food (not water) was removed from the cages during the experimental period. […] The percent decline in AUC of the experiment group compared to sham treated control group termed as % antihyperglycaemic activity. Statistical analysis between the groups was done by employing Students t test.

[2] = test system: STZ-induced diabetic rats; assay: Streptozotocin-induced diabetic rat model (STZ); format: in vivo; conditions: 100 mg/kg
Protocol: Male albino rats (Sprague Dawley Strain) of body weight 160±20 g were procured from the colony of CDRI Animal House. 4 to 5 animals were kept in one polypropylene cage and acclimatized for one week in the new environment. The animals were made diabetic by injecting streptozotocin (STZ) intraperitoneally to the overnight starved animals at a dose of 60 mg/kg prepared in 100 mM citrate buffer (pH 4.5). Fasting blood glucose level of each animal was measured after 48 hours post STZ injection by Glucostrips (Roche) using Glucometer (ACCU-CHEK II; Roche Diagnostics, USA) and animals showing blood glucose level above 280 mg/dl were considered as diabetic. The diabetic rats with fasting blood glucose values varying between 280-450 mg/dl were included in this study. Animals were divided into groups consisting of five animals in each. Group one was considered as a control group, where as the other groups were termed as experimental groups. Rats of experimental group were usually given 100 mg/kg body weight of the test samples unless stated otherwise and standard drug i.e. metformin, respectively. The test samples and standard drug i.e. metformin was always prepared in the vehicle 1% gum acacia. 30 min post administration of the test samples/vehicle/standard drug, blood glucose levels of the animals of all the groups were measured at 30, 60, 90, 120, 180, 240, 300 and 1440 min. Food (not water) was removed from the cages during the experimental period. A plot was drawn between time and blood glucose levels on x and y axis, respectively and the area under curve (AUC) between 0 to 300 min were calculated of each group. The percent decline in AUC of the experiment group compared to sham treated control group termed as % antihyperglycaemic activity. Statistical comparison between the groups was done by employing Student's ‘t’ test.

[3] = test system: high fructose high fat fed Syrian golden hamsters; assay: Antidyslipidemic activity in high fructose high fat fed Syrian golden hamsters; format: in vivo
Protocol: Male Syrian golden hamsters weighing 100-120 g were divided into groups each containing six animals. Dyslipidemia was produced by feeding the animals with high fructose high fat diet (60% fructose, 13% fat) for 30 to 40 days. Dyslipidemic hamsters were divided into groups based on their Serum lipid profile. The dyslipidemic animals had free access to HFD and water throughout the experimental period. The fine suspension of 14b was fed orally at a dose of 30 mg/kg for 7 days to the animals. Control animals were given drug vehicle only, served as sham treated control. Body weight and diet intake of each animal group were recorded daily to check the effect of the test samples on food intake and body weight of the animals. At the end of the experiment period i.e. on day 8th, the blood of each animal was withdrawn from retro-orbital plexus. After keeping the tubes for 15 min. in cold, Serum was separated. Biochemical analysis of Serum was performed on the same day for triglycerides (TG), total cholesterol (TC) and HDL-cholesterol and LDL-cholesterol contents using Cobas Integra 400 plus analyzer kits. All statistical analysis will be performed with Graph Pad Prism Software. One way ANOVA, all pair wise multiple comparison procedure (Tukey test). Data will be reported as mean±SEM.

CCN(CC)CCO/N=C(\C)C1=CC[C@H]2[C@@H]3CC=C4C[C@@H](O)CC[C@]4(C)[C@H]3CC[C@]12C [Compound 11d, 3β-Hydroxypregna-5,16-dien-20-one-O-(2-diethylamino-ethyl)-oxime]
melting point: 156 to 160 °C
% Antihyperglycemic activity SLM (sucrose loaded rat): 13.1%

C/C(=N/OCC(O)CN1CCN(c2ccccc2)CC1)[C@H]1CC[C@H]2[C@@H]3CC=C4C[C@@H](O)CC[C@]4(C)[C@H]3CC[C@]12C (stereo partly drawn) [Compound 16c, 3β-Hydroxy-pregna-5-en-20-one-O-[2-hydroxy-3-(4-phenyl-piperazin-1-yl)-propyl]-oxime]
% Antihyperglycemic activity SLM (sucrose loaded rat): 17.8%

C/C(=N\OCC(O)CNC(C)(C)C)[C@H]1CC[C@H]2[C@@H]3CC=C4C[C@@H](O)CC[C@]4(C)[C@H]3CC[C@]12C (stereo partly drawn) [Compound 16a, 3β-Hydroxy-pregna-5-en-20-one-O-[2-hydroxy-3-tert.-butylamino-propyl]-oxime]
melting point: > 200 °C
% Antihyperglycemic activity SLM (sucrose loaded rat): 37.7%

CC(=NO)[C@H]1CC[C@H]2[C@@H]3CC=C4C[C@@H](O)CC[C@]4(C)[C@H]3CC[C@]12C [Compound 10., 3β-hydroxy-pregna-5-en-20-one-oxime]
% Antihyperglycemic activity SLM (sucrose loaded rat): 13.9%

C/C(=N\OCCN1CCCCC1)C1=CC[C@H]2[C@@H]3CC=C4C[C@@H](O)CC[C@]4(C)[C@H]3CC[C@]12C [Compound 11a, 3β-Hydroxy-pregna-5,16-dien-20-one-O-(2-piperidinyl-ethyl)-oxime]
melting point: 135 to 138 °C
% Antihyperglycemic activity SLM (sucrose loaded rat): 27.15%

C/C(=N\OCCN1CCCC1)[C@H]1CC[C@H]2[C@@H]3CC=C4C[C@@H](O)CC[C@]4(C)[C@H]3CC[C@]12C [Compound 14a, 3β-Hydroxy-pregna-5-en-20-one-O-(2-pyrrolidin-1-yl-ethyl)-oxime]
% Antihyperglycemic activity STZ-S 0-5 hr [1]: 9.96%
% Antihyperglycemic activity STZ-S 0-24 hr [1]: 3.07%
melting point: 140 to 142 °C
% Antihyperglycemic activity SLM (sucrose loaded rat): 42.4%
anti-diabetic activity, in words (sucrose loaded rat; all the models including db/+ mice models): better anti-diabetic activity

C/C(=N\OCC(O)CNC(C)C)C1CCC2C3CC=C4CC(O)CCC4(C)C3CCC12C (stereo not drawn) [Compound 16b, 3β-Hydroxy-pregna-5-en-20-one-O-[2-hydroxy-3-iso-propylamino-Propyl)-oxime]
% Antihyperglycemic activity SLM (sucrose loaded rat): 13.6%

COc1ccccc1N1CCN(CC(O)CO/N=C(/C)C2CCC3C4CC=C5CC(O)CCC5(C)C4CCC23C)CC1 (stereo not drawn) [Compound 16d, 3β-Hydroxy-pregna-5-en-20-one-O-{2-hydroxy-3-[4-(2-methoxyphenyl)-Piperzin-1-yl]-propyl}-oxime]
melting point: 145 to 149 °C
% Antihyperglycemic activity SLM (sucrose loaded rat): 13.9%

C/C(=N\OCCN1CCOCC1)C1=CC[C@H]2[C@@H]3CC=C4C[C@@H](O)CC[C@]4(C)[C@H]3CC[C@]12C [Compound 11c, 3β-Hydroxypregna-5,16-dien-20-one-O-(2-morpholin-4-yl-ethyl)-oxime]
% Antihyperglycemic activity SLM (sucrose loaded rat): 10.2%

CN(C)C(=N)N=C(N)N [Metformin, reference compound]
% Antihyperglycemic activity 0-300 min ([1]; 100 mg/kg): 23.7%**
% Antihyperglycemic activity 0-1440 min ([1]; 100 mg/kg): 23.1%**
Blood glucose level, 0 min post sucrose load ([1]; 100 mg/kg): 222.2 ± 19.9 mg/dL
Blood glucose level, 30 min post sucrose load ([1]; 100 mg/kg): 457.4 ± 17.2 mg/dL
Blood glucose level, 60 min post sucrose load ([1]; 100 mg/kg): 524.2 ± 18.9 mg/dL
Blood glucose level, 90 min post sucrose load ([1]; 100 mg/kg): 468.2 ± 11.3 mg/dL
Blood glucose level, 120 min post sucrose load ([1]; 100 mg/kg): 416.0 ± 12.2 mg/dL
Blood glucose level, 180 min post sucrose load ([1]; 100 mg/kg): 373.6 ± 11.4 mg/dL
Blood glucose level, 240 min post sucrose load ([1]; 100 mg/kg): 345.0 ± 10.6 mg/dL
Blood glucose level, 300 min post sucrose load ([1]; 100 mg/kg): 310.8 ± 2.6 mg/dL
Blood glucose level, 1440 min post sucrose load ([1]; 100 mg/kg): 392.8 ± 9.9 mg/dL
% Antihyperglycemic activity 0-300 min ([1]; 100 mg/kg, listed as metformin): 23.7%
% Antihyperglycemic activity 0-1440 min ([1]; 100 mg/kg, listed as metformin): 23.1%
% Antihyperglycemic activity STZ-S 0-5 hr [1]: 25.8%
% Antihyperglycemic activity STZ-S 0-24 hr [1]: 33.2%
Blood glucose level, 0 min post sucrose load [2]: 358.4 ± 14.5 mg/dL
Blood glucose level, 30 min post sucrose load [2]: 450.0 ± 21.8 mg/dL
Blood glucose level, 60 min post sucrose load [2]: 419.0 ± 10.5 mg/dL
Blood glucose level, 90 min post sucrose load [2]: 399.0 ± 7.7 mg/dL
Blood glucose level, 120 min post sucrose load [2]: 351.0 ± 16.0 mg/dL
Blood glucose level, 180 min post sucrose load [2]: 349.6 ± 10.1 mg/dL
Blood glucose level, 240 min post sucrose load [2]: 337.0 ± 7.7 mg/dL
Blood glucose level, 300 min post sucrose load [2]: 299.8 ± 5.0 mg/dL
Blood glucose level, 1440 min post sucrose load [2]: 445.6 ± 13.9 mg/dL
Blood glucose profile, 0 min post glucose load (sucrose loaded rat; 100 mg/kg): 94.8 ± 2.1 mg/dL
Blood glucose profile, 30 min post glucose load (sucrose loaded rat; 100 mg/kg): 111.4 ± 7.8 mg/dL
Blood glucose profile, 60 min post glucose load (sucrose loaded rat; 100 mg/kg): 105.8 ± 2.1 mg/dL
Blood glucose profile, 90 min post glucose load (sucrose loaded rat; 100 mg/kg): 94.0 ± 2.0 mg/dL
Blood glucose profile, 120 min post glucose load (sucrose loaded rat; 100 mg/kg): 84.2 ± 1.3 mg/dL
% Antihyperglycaemic activity (improvement in OGTT post sucrose load) (sucrose loaded rat; 100 mg/kg, AUC 0-120 min vs control, normal rats): 24.4*** %
% Antihyperglycemic activity SLM (sucrose loaded rat): 21.1%

C/C(=N\OCCN1CCCCCC1)C1=CC[C@H]2[C@@H]3CC=C4C[C@@H](O)CC[C@]4(C)[C@H]3CC[C@]12C [Compound 11b, 3β-Hydroxypregna-5,16-dien-20-one-O-(2-azepan-1-yl-ethyl)-oxime]
melting point: 127 to 130 °C
% Antihyperglycemic activity SLM (sucrose loaded rat): 16.5%

CC(C)OC(=O)C(C)(C)Oc1ccc(C(=O)c2ccc(Cl)cc2)cc1 [Fenofibrate, reference compound]
enhancement of lipoprotein lipase ([3]; 30 mg/kg oral): 21.1%
enhancement of serum HDL-cholesterol ([3]; 30 mg/kg oral): 9.8%
lowering of LDL-cholesterol (LDL-C) level ([3]; 30 mg/kg oral): 30.1%
lowering of serum glycerol level ([3]; 30 mg/kg oral): 22.4%
lowering of serum triglycerides level (TG) ([3]; 30 mg/kg oral): 28.9%
Glycerol, change vs HFD control (in parentheses) ([3]; 30 mg/kg p.o., 7 days): (−22.4)* %
HDL-C, change vs HFD control (in parentheses) ([3]; 30 mg/kg p.o., 7 days): (+9.80) %
LDL-C, change vs HFD control (in parentheses) ([3]; 30 mg/kg p.o., 7 days): (−30.1)** %
Lipoprotein lipase, change vs HFD control (in parentheses) ([3]; 30 mg/kg p.o., 7 days): (+21.1)* %
TG, change vs HFD control (in parentheses) ([3]; 30 mg/kg p.o., 7 days): (−28.9)* %
Chol ([3]; 30 mg/kg p.o., 7 days, serum): 277.8 ± 22.3 mg/dL
HDL-C ([3]; 30 mg/kg p.o., 7 days, serum): 156.8 ± 12.8 mg/dL
Lipoprotein lipase ([3]; 30 mg/kg p.o., 7 days, serum): 36.8 ± 3.60 U/L
NEFA ([3]; 30 mg/kg p.o., 7 days, serum): 5.40 ± 0.30 mmol/L
TG ([3]; 30 mg/kg p.o., 7 days, serum): 529.8 ± 30.7 mg/dL
